This note sets out measurements from the supplement of paper PMC10307832.

What all share (experiment): relative viability (nuclei count vs DMSO), 5 days (fraction); higher = more cells survive
Compound in the experiment “XMD8-85 + Foretinib”: CN1CCN(CC1)C2=CC(=C(C=C2)NC3=NC=C4C(=N3)N(C5=CC=CC=C5C(=O)N4C)C)OC [XMD8-85] + COc1cc2c(Oc3ccc(NC(=O)C4(C(=O)Nc5ccc(F)cc5)CC4)cc3F)ccnc2cc1OCCCN1CCOCC1 [Foretinib] (partner 0.25 µM)
In a few lines:
(§1)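 Relative viability equals treated-well nuclei counts divided by vehicle-well nuclei counts. Counts came from 4× images of lung cancer cell lines grown in 1536-well plates for 5 days after pin-tool dosing on the day after seeding. Dosing used one drug alone or a fixed anchor-drug dose plus five library-drug doses (not always all listed) in √10 steps, and values are medians of duplicate plates.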

Compound in the experiment “XMD8-85 + Lapatinib”: CN1CCN(CC1)C2=CC(=C(C=C2)NC3=NC=C4C(=N3)N(C5=CC=CC=C5C(=O)N4C)C)OC [XMD8-85] + CS(=O)(=O)CCNCc1ccc(-c2ccc3ncnc(Nc4ccc(OCc5cccc(F)c5)c(Cl)c4)c3c2)o1 [Lapatinib] (partner 2 µM)
In a few lines: as §1

Compound in the experiment “4EGI-1 + OSI-027”: O=C(O)C(Cc1ccccc1[N+](=O)[O-])=NNc1nc(-c2ccc(Cl)c(Cl)c2)cs1 (mixture of isomers) [4EGI-1] + COc1cccc2cc(-c3nc([C@H]4CC[C@H](C(=O)O)CC4)n4ncnc(N)c34)[nH]c12 [OSI-027] (partner 0.5 µM)
In a few lines: as §1

As for NCI-H1650, the relative viability with XMD8-85 + Foretinib (first compound 0.08 µM) worked out at 1.12; with XMD8-85 + Foretinib (first compound 0.253 µM), 1.19; with XMD8-85 + Foretinib (first compound 0.8 µM) it was 1.17; with XMD8-85 + Foretinib (first compound 2.53 µM), 0.863; in the experiment with XMD8-85 + Foretinib (first compound 8 µM), 0.32; with XMD8-85 + Lapatinib (first compound 0.08 µM), 0.729. For the same cell line, the relative viability was 0.819 with XMD8-85 + Lapatinib (first compound 0.253 µM); 0.92 with XMD8-85 + Lapatinib (first compound 0.8 µM); 0.671 with XMD8-85 + Lapatinib (first compound 2.53 µM); 0.281 in the experiment with XMD8-85 + Lapatinib (first compound 8 µM); 0.705 with 4EGI-1 + OSI-027 (first compound 0.5 µM); 0.681 in the experiment with 4EGI-1 + OSI-027 (first compound 5 µM). Moreover, the relative viability with 4EGI-1 + OSI-027 (first compound 15.81 µM) was 0.263; with 4EGI-1 + OSI-027 (first compound 50 µM) it was 0.173.
With NCI-H2023, the relative viability in the experiment with XMD8-85 + Foretinib (first compound 0.08 µM) was determined as 0.865; in the experiment with XMD8-85 + Foretinib (first compound 0.253 µM) it was 0.804; in the experiment with XMD8-85 + Foretinib (first compound 0.8 µM), 0.961; with XMD8-85 + Foretinib (first compound 2.53 µM), 0.699; with XMD8-85 + Foretinib (first compound 8 µM) it was 0.391; with XMD8-85 + Lapatinib (first compound 0.08 µM), 0.649. Moreover, the relative viability with XMD8-85 + Lapatinib (first compound 0.253 µM) turned out to be 0.755; with XMD8-85 + Lapatinib (first compound 0.8 µM) it was 0.957; with XMD8-85 + Lapatinib (first compound 2.53 µM) it was 1.02; with XMD8-85 + Lapatinib (first compound 8 µM) it was 0.516; with 4EGI-1 + OSI-027 (first compound 0.5 µM), 0.712; with 4EGI-1 + OSI-027 (first compound 5 µM), 0.359. Moreover, the relative viability with 4EGI-1 + OSI-027 (first compound 15.81 µM) amounted to 0.162; with 4EGI-1 + OSI-027 (first compound 50 µM) it was 0.0791.
For the cell line NCI-H2009, the relative viability in the experiment with XMD8-85 + Foretinib (first compound 0.08 µM) was 1.24; with XMD8-85 + Foretinib (first compound 0.253 µM), 1.25; with XMD8-85 + Foretinib (first compound 0.8 µM) it was 1.23; with XMD8-85 + Foretinib (first compound 2.53 µM), 1.08; with XMD8-85 + Foretinib (first compound 8 µM) it was 0.516; in the experiment with XMD8-85 + Lapatinib (first compound 0.08 µM) it was 0.934. The relative viability is 0.931 in the experiment with XMD8-85 + Lapatinib (first compound 0.253 µM); 1.01 with XMD8-85 + Lapatinib (first compound 0.8 µM); 0.841 in the experiment with XMD8-85 + Lapatinib (first compound 2.53 µM); 0.456 in the experiment with XMD8-85 + Lapatinib (first compound 8 µM); 0.765 in the experiment with 4EGI-1 + OSI-027 (first compound 0.5 µM); 0.651 in the experiment with 4EGI-1 + OSI-027 (first compound 1.581 µM). The relative viability came out at 0.768 with 4EGI-1 + OSI-027 (first compound 5 µM), 0.657 with 4EGI-1 + OSI-027 (first compound 15.81 µM) and 0.161 with 4EGI-1 + OSI-027 (first compound 50 µM).
With SK-LU-1, the relative viability with XMD8-85 + Foretinib (first compound 0.08 µM) is 0.845; in the experiment with XMD8-85 + Foretinib (first compound 0.253 µM) it was 0.825; with XMD8-85 + Foretinib (first compound 0.8 µM), 0.841; with XMD8-85 + Foretinib (first compound 2.53 µM), 0.772; with XMD8-85 + Foretinib (first compound 8 µM), 0.674; with XMD8-85 + Lapatinib (first compound 0.08 µM) it was 0.549. For the same cell line, the relative viability with XMD8-85 + Lapatinib (first compound 0.253 µM) was 0.892; with XMD8-85 + Lapatinib (first compound 0.8 µM), 0.852; with XMD8-85 + Lapatinib (first compound 2.53 µM), 1.07; with XMD8-85 + Lapatinib (first compound 8 µM), 0.699; with 4EGI-1 + OSI-027 (first compound 0.5 µM), 0.381; with 4EGI-1 + OSI-027 (first compound 1.581 µM) it was 0.36. The results for the relative viability in the experiment with 4EGI-1 + OSI-027 (first compound 5 µM), with 4EGI-1 + OSI-027 (first compound 15.81 µM) and in the experiment with 4EGI-1 + OSI-027 (first compound 50 µM) were 0.356, 0.34 and 0.174, respectively.
For NCI-H1299, the relative viability with XMD8-85 + Foretinib (first compound 0.08 µM) amounted to 1.13; with XMD8-85 + Foretinib (first compound 0.253 µM) it was 1.1; in the experiment with XMD8-85 + Foretinib (first compound 0.8 µM) it was 1.1; with XMD8-85 + Foretinib (first compound 2.53 µM), 1.11; with XMD8-85 + Foretinib (first compound 8 µM), 0.86; with XMD8-85 + Lapatinib (first compound 0.08 µM), 1. In addition, the relative viability with XMD8-85 + Lapatinib (first compound 0.253 µM) was found to be 0.985; in the experiment with XMD8-85 + Lapatinib (first compound 0.8 µM) it was 0.977; with XMD8-85 + Lapatinib (first compound 2.53 µM) it was 0.974; with XMD8-85 + Lapatinib (first compound 8 µM) it was 0.67.
With SW 1573, the relative viability in the experiment with XMD8-85 + Foretinib (first compound 0.08 µM) was 0.876; in the experiment with XMD8-85 + Foretinib (first compound 0.253 µM) it was 0.884; with XMD8-85 + Foretinib (first compound 0.8 µM), 0.854; with XMD8-85 + Foretinib (first compound 2.53 µM) it was 1; with XMD8-85 + Foretinib (first compound 8 µM), 0.762; with XMD8-85 + Lapatinib (first compound 0.08 µM), 1.1. Besides, the relative viability worked out at 1.21 with XMD8-85 + Lapatinib (first compound 0.253 µM); 1.02 with XMD8-85 + Lapatinib (first compound 0.8 µM); 1.09 with XMD8-85 + Lapatinib (first compound 2.53 µM); 0.885 in the experiment with XMD8-85 + Lapatinib (first compound 8 µM); 0.884 in the experiment with 4EGI-1 + OSI-027 (first compound 0.5 µM); 0.431 with 4EGI-1 + OSI-027 (first compound 1.581 µM). For the same cell line, the relative viability in the experiment with 4EGI-1 + OSI-027 (first compound 5 µM) turned out to be 0.703; in the experiment with 4EGI-1 + OSI-027 (first compound 15.81 µM), 0.284; with 4EGI-1 + OSI-027 (first compound 50 µM), 0.11.
